# Measured values from publication PMC12040169 (PLOS Biology, 2025).
# Test: in vitro
# Conditions: human, hela cells, % viability
row,Structure (SMILES),"viability at 28.5 h, 10 µM"
1,Cc1ccc(-c2c[nH]c([C@@H]3COCCN3Cc3c[nH]c4ccccc34)n2)cc1 [CBK289308],106%
2,CN(C)Cc1cc(C[C@@H]2C[C@H](NCc3ccccn3)C2(C)C)no1 [CBK289313],92.3%
3,Cc1ccc(-c2c[nH]c([C@@H]3COCCN3Cc3c[nH]cn3)n2)cc1 [CBK289315],94.8%
4,O=C(O)c1ccc(CN2CCOC[C@H]2c2nc(-c3ccc(C(F)(F)F)cc3)c[nH]2)cc1 [CBK289317],115%
5,O=C(Nc1ccc([C@@H](O)[C@H]2COCC(=O)N2Cc2cccnc2)cc1)c1ccccc1 [CBK289319],111%
6,CS(=O)(=O)c1ccc(-c2c[nH]c([C@@H]3COCCN3Cc3c[nH]c4ccccc34)n2)cc1 [CBK289321],92%
7,Cn1cc(CN2CCOC[C@H]2c2nc(C(C)(C)C)c[nH]2)c2ccccc21 [CBK289322],118%
8,COc1ccc(C(=O)N2CC[C@H]3NC(=O)N(c4ccc(F)cc4)C(=O)[C@H]32)cc1 [CBK289325],86.9%
9,O=C1N[C@@H]2CCN(S(=O)(=O)c3cccs3)[C@@H]2C(=O)N1c1ccc(F)cc1 [CBK289326],89.1%
10,O=C(O)CC1(CC(=O)N2CC[C@H]3NC(=O)N(c4ccc(F)cc4)C(=O)[C@H]32)CCCC1 [CBK289327],97.7%
11,COc1ccc(-c2ccc3c(c2)C(=O)N2CC[C@H](NC(=O)C4CCCC4)[C@H]2C(=O)N3)cc1 [CBK289330],108%
12,COc1ccc(-c2ccc3c(c2)C(=O)N2CC[C@H](NC(=O)CCC(=O)O)[C@H]2C(=O)N3)cc1 [CBK289331],84.4%
13,O=C(N[C@H]1CCN2C(=O)c3ccccc3NC(=O)[C@H]12)c1cccc(F)c1 [CBK289332],89.3%
14,CC(C)NC(=O)N[C@H]1CCN2C(=O)c3cc(-c4ccccc4F)ccc3NC(=O)[C@H]12 [CBK289335],84.2%
15,O=C1Nc2ccc(-c3ccsc3)cc2C(=O)N2CC[C@H](NC(=O)N3CCOCC3)[C@@H]12 [CBK289338],109%
16,CC(C)NC(=O)N[C@H]1CCN2C(=O)c3ccc(Cl)cc3NC(=O)[C@H]12 [CBK289343],99.5%
17,N[C@H]1CCN2C(=O)c3cc(-c4ccc(F)cc4F)ccc3NC(=O)[C@H]12 [CBK289345],94.4%
18,Cc1cccc(-c2ccc3c(c2)C(=O)N2CC[C@H](NC(=O)N4CCOCC4)[C@H]2C(=O)N3)c1C [CBK289347],88.1%
19,CC(C)NC(=O)N[C@H]1CCN2C(=O)c3cc(-c4ccccc4)ccc3NC(=O)[C@H]12 [CBK289351],84.1%
20,O=C(N[C@H]1C[C@H]2C(=O)Nc3ccccc3C(=O)N2C1)c1cccnc1 [CBK289356],110%
21,COCC(=O)N[C@H]1C[C@H]2C(=O)Nc3ccc(Br)cc3C(=O)N2C1 [CBK289357],97.6%
22,COCC(=O)N[C@H]1C[C@H]2C(=O)Nc3ccc(-c4cccs4)cc3C(=O)N2C1 [CBK289358],110%
23,COc1ccc(C(=O)N[C@H]2C[C@H]3C(=O)Nc4ccc(-c5ccsc5)cc4C(=O)N3C2)cc1 [CBK289362],91.7%
24,CS(=O)(=O)N[C@H]1C[C@H]2C(=O)Nc3cc(Cl)ccc3C(=O)N2C1 [CBK289363],89%
25,Cn1cccc1C(=O)N[C@H]1C[C@H]2C(=O)Nc3cc(Cl)ccc3C(=O)N2C1 [CBK289364],86.7%

row,Structure (SMILES),"viability at 28.5 h, 10 µM"
1,C=CCNC(=O)N[C@H]1C[C@H]2C(=O)Nc3cc(Cl)ccc3C(=O)N2C1 [CBK289365],92.5%
2,Cn1cccc1C(=O)N[C@H]1C[C@H]2C(=O)Nc3ccc(/C=C/c4ccccc4)cc3C(=O)N2C1 [CBK289367],86.7%
3,CS(=O)(=O)N[C@H]1C[C@H]2C(=O)Nc3ccc(-c4ccc(F)cc4F)cc3C(=O)N2C1 [CBK289368],85.3%
4,CS(=O)(=O)N1CC[C@H](c2nc3cc(Cl)ccc3o2)C1 [CBK289370],86%
5,CC(=O)Nc1ccc(S(=O)(=O)N2CC[C@H](c3nc4ccccc4o3)C2)cc1 [CBK289373],103%
6,CC(=O)N1CC[C@H](c2nc3ccc(C#N)cc3[nH]2)C1 [CBK289378],108%
7,CCS(=O)(=O)c1ccc2oc([C@H]3CCN(C(=O)C4CCCCC4)C3)nc2c1 [CBK289381],104%
8,c1ccc(CN2CC[C@H](c3nc4ncccc4[nH]3)C2)cc1 [CBK289383],106%
9,O=C(O)c1ccc(CN2CC[C@H](c3nc4ccccc4o3)C2)cc1 [CBK289387],108%
10,c1ccc2oc([C@H]3CCN(C4CCOCC4)C3)nc2c1 [CBK289388],92.3%
11,Cc1nnc([C@H]2CCN(Cc3ccccc3)C2)o1 [CBK289390],114%
12,Cc1nnc([C@H]2CCN(Cc3cccs3)C2)o1 [CBK289393],103%
13,c1cncc(-c2nnc([C@H]3CCNC3)o2)c1 [CBK289396],103%
14,Cc1ccc(-c2nnc([C@H]3CCN(Cc4ccc(CO)o4)C3)o2)cc1 [CBK289399],90%
15,CCCc1nnc([C@H]2CCN(Cc3ccc(S(C)(=O)=O)cc3)C2)o1 [CBK289402],100%
16,CN1CCC(N2CC[C@H](c3nnc(-c4cncn4C)o3)C2)CC1 [CBK289403],117%
17,CN(C)c1ccc(-c2nnc([C@H]3CCN(C(=O)CCC(=O)O)C3)o2)cc1 [CBK289408],119%
18,COc1ccc(-c2nnc([C@H]3CCN(C(=O)C4CC4)C3)o2)cc1 [CBK289409],89.6%
19,COCC(=O)N1CC[C@H](c2nnc(-c3ccncc3)o2)C1 [CBK289413],88%
20,CN(C)c1ccc(CN2CC[C@H](c3nc4cccc(C(N)=O)c4[nH]3)C2)cc1 [CBK289414],105%
21,CC(C)C[C@@H]1N[C@H](C(=O)NCCN(C)C)Cc2c[nH]c3cccc1c23 [CBK289417],92.9%
22,CC(C)C[C@@H]1N[C@H](C(=O)NCc2cccnc2)Cc2c[nH]c3cccc1c23 [CBK289418],90%
23,COCCN1CCN(C(=O)[C@@H]2Cc3c[nH]c4cccc(c34)[C@H](CC(C)C)N2)CC1 [CBK289419],84.5%
24,Cc1cc(CNC(=O)[C@@H]2Cc3cn(C)c4cccc(c34)[C@H](CC(C)C)N2)no1 [CBK289420],104%
25,CC(C)C[C@@H]1N[C@H](C(=O)N2CCN(c3ncccn3)CC2)Cc2cn(C)c3cccc1c23 [CBK289421],84.2%

row,Structure (SMILES),"viability at 28.5 h, 10 µM"
1,C#CCNC(=O)[C@@H]1Cc2cn(Cc3nccn3C)c3cccc(c23)[C@H](CC(C)C)N1 [CBK289424],108%
2,C#CCNC(=O)[C@@H]1Cc2cn(Cc3c(C)noc3C)c3cccc(c23)[C@H](CC(C)C)N1 [CBK289425],93.7%
3,COc1ccc(-c2cc(CC3(NC(C)=O)COC3)no2)cc1 [CBK289428],94.5%
4,COCC(=O)Nc1nc2c(s1)C[C@]1(C)CC[C@@H]3[C@H](OC(=O)[C@H]3C)[C@H]1[C@@H]2C [CBK289430],105%
5,C[C@@H]1C(=O)O[C@H]2[C@H]1CC[C@@]1(C)Cc3sc(NC(=O)CN(C)C)nc3[C@@H](C)[C@H]21 [CBK289431],87.3%
6,Cc1cc(OCC(=O)O)c(C)c2c1CC[C@@H]([C@H](C)C(=O)N1CCC(O)CC1)C2 [CBK289433],78.7%
7,CC(=O)N[C@H]1CC[C@]2(C)CCC([C@H](C)C(=O)NCCN3CCOCC3)[C@H](O)[C@H]2[C@@H]1C (some centres unmarked) [CBK289434],114%
8,CC(=O)N[C@H]1CC[C@]2(C)CCC([C@H](C)C(=O)N(C)Cc3ccccc3)[C@H](O)[C@H]2[C@@H]1C (some centres unmarked) [CBK289435],110%
9,CC(=O)N[C@H]1CC[C@]2(C)CCC([C@H](C)C(=O)NC3CC3)[C@H](O)[C@H]2[C@@H]1C (some centres unmarked) [CBK289437],93.9%
10,CC(=O)N[C@H]1CC[C@]2(C)CCC([C@H](C)C(=O)NCCN3CCCC3)[C@H](O)[C@H]2[C@@H]1C (some centres unmarked) [CBK289440],86.5%
11,C[C@H]1[C@@H]2[C@@H](O)C([C@H](C)C(=O)NC3CC3)CC[C@@]2(C)CC[C@@H]1NC(=O)C1CC1 (some centres unmarked) [CBK289442],87.1%
12,CC(C)NC(=O)[C@@H](C)C1CC[C@@]2(C)CC[C@H](NC(=O)C3CC3)[C@@H](C)[C@@H]2[C@H]1O (some centres unmarked) [CBK289444],85%
13,C[C@H]1[C@@H]2[C@@H](O)C([C@H](C)C(=O)N3CCCCC3)CC[C@@]2(C)CC[C@@H]1NC(=O)C1CC1 (some centres unmarked) [CBK289446],106%
14,C[C@H]1[C@@H]2[C@@H](O)C([C@H](C)C(=O)N3CCCC3)CC[C@@]2(C)CC[C@@H]1NC(=O)C1CC1 (some centres unmarked) [CBK289447],85%
15,C[C@H]1[C@@H]2[C@@H](O)C([C@H](C)C(=O)N3CCCCC3)CC[C@@]2(C)CC[C@@H]1NC(=O)c1cnccn1 (some centres unmarked) [CBK289448],111%
16,CC(C)NC(=O)[C@@H](C)C1CC[C@@]2(C)CC[C@H](NC(=O)c3ccncc3)[C@@H](C)[C@@H]2[C@H]1O (some centres unmarked) [CBK289449],89.1%
17,C[C@H]1[C@@H]2[C@H]3OC(=O)[C@@H](C)[C@@H]3CC[C@@]2(C)CC[C@@H]1NC(=O)c1ccccn1 [CBK289452],107%
18,C[C@H]1[C@@H]2[C@@H](O)C([C@H](C)C(=O)NC3CC3)CC[C@@]2(C)CC[C@@H]1NC(=O)c1cncnc1 (some centres unmarked) [CBK289453],91.5%
19,CC(C)NC(=O)[C@@H](C)C1CC[C@@]2(C)CC[C@H](NC(=O)c3cncnc3)[C@@H](C)[C@@H]2[C@H]1O (some centres unmarked) [CBK289454],103%
20,CCNC(=O)N[C@H]1CC[C@]2(C)CCC([C@H](C)C(=O)N3CCCC3)[C@H](O)[C@H]2[C@@H]1C (some centres unmarked) [CBK289456],116%
21,Cc1noc(C)c1C(=O)N[C@H]1CO[C@H]2[C@@H]1OC[C@H]2OCc1ccccc1 [CBK289458],96.7%
22,COc1ccc(C(=O)N[C@H]2CO[C@H]3[C@@H]2OC[C@H]3OC(=O)Nc2ccccc2)cc1 [CBK289463],103%
23,O=C(Nc1ccccc1)O[C@@H]1CO[C@H]2[C@@H]1OC[C@@H]2NC(=O)C1CC1 [CBK289464],88%
24,O=C(Nc1cccc2ccccc12)O[C@@H]1CO[C@H]2[C@@H]1OC[C@@H]2NC(=O)c1cccs1 [CBK289468],103%
